The subject of one test is HepG2 cells. Briefly: Increase in LDL-binding to HepG2 cells. Type of test: cell-based. The conditions noted are these: 10 μM test compound, 20 hours, specific human [125I]LDL binding, normalized by protein, read-out: LDL binding (% of control). The protocol: Increase in LDL-binding to HepG2 cells LDL-binding was measured according to the method of J. L. Goldstein. HepG2 cells were purchased from ATCC (American type culture collection) and seeded in 6-well plate with collagen coating (Sumitomo Bakelite), and cultured in Eagle's minimum essential medium (MEM) containing 10%-fetal bovine serum at 37° C. for 4 days. […] After washing with phosphate buffered saline cells were incubated with MEM containing 25 mM-HEPES and 1%-bovine serum albumin (fatty acid free) in the presence of human [^125 I]LDL (4 μg/ml) at 6° C. for 2 hours. After washing cells bound [^125 I]LDL was dissociated with dextran sulfate and the radioactivity was measured (total binding). [^125 I]LDL binding to cells was also measured in the presence of LDL (300 μg/ml) as a non-specific binding (NSB). Specific [^125 I]LDL-binding was calculated by subtracting NSB from total binding and was normalized by protein content measured by the method of lowry. Data was expressed as percentage of the control.

In a further test the test system is Golden Syrian hamsters. Briefly: Cholesterol lowering activity in Golden hamster. Type of test: in vivo, Golden Syrian hamster. The conditions noted are these: Mesocricetus auratus, po, 96 h, 20 mg/kg/d orally, once daily for 4 days. The protocol:
Cholesterol lowering activity in Golden hamster Male Golden Syrian hamsters (110-130 g) were maintained freely on water and a laboratory diet (CE-2, Clea Japan Inc., Tokyo). […] Blood was taken from orbital sinus and plasma total cholesterol and triglyceride were measured an automatic analyzer (Hitachi 7070, Hitachi Ltd., Tokyo) using commercial kits (Wako Pure Chemical Industries, Osaka), and plasma HDL-cholesterol using a commercial kit (Kyowa Medex Co., Ltd., Tokyo) before and after the treatment of compound. Non-HDL cholesterol was calculated by subtracting HDL-cholesterol from total cholesterol. |Non-HDL-C (non-HDL-cholesterol): [total cholesterol]-[HDL-cholesterol] |TG: triglyceride

[1] abbreviates: plasma triglyceride, read-out: TG (% of control).
Where [2] appears, read: plasma, [total cholesterol]-[HDL-cholesterol], read-out: Non-HDL-C (% of control).

Where a name gives a salt, the structure may show the parent alone. Read-outs that look alike come from different tables or passages of the source.

Take `O=C(NCC1CCN(C[C@H]2COc3ccccc3O2)CC1)C1=Cc2cnc3cccc(n23)S1` [Example 2, (S)-N-[1-(1,4-benzodioxan-2-ylmethyl)piperidin-4-ylmethyl]-5-thia-1,8b-diazaacenaphthylene-4-carboxamide]: the activity at 10 µM with HepG2 cells stood at 172%. For the same compound, the response vs control in vivo at 20 mg/kg in the test with Golden Syrian hamsters (setting [1]) is 102%; in the test on Golden Syrian hamsters (setting [2]), 65.1%.

Consider `O=C(NCCCCN1CCN(Cc2ccccc2)CC1)C1=Cc2cnc3cccc(n23)S1` [Example 32, N-[4-(4-benzyl-1-piperazinyl)butan-1-yl]-5-thia-1,8b-diazaacenaphthylene-4-carboxamide Trihydrochloride], for which the response vs control in vivo at 20 mg/kg in the test with Golden Syrian hamsters (setting [1]) was found to be 76.5%; in the test with Golden Syrian hamsters (setting [2]) it was 76.6%.

For the compound `O=C(NCC1CCN(CCCc2ccc(F)cc2F)CC1)C1=Cc2cnc3cccc(n23)S1` [Example 76, N-[1-(3-(2,4-difluorophenyl)propan-1-yl)piperidin-4-ylmethyl]-5-thia-1,8b-diazaacenaphthylene-4-carboxamide Dihydrochloride], the activity at 10 µM in the test with HepG2 cells was determined as 282%. Further, the response vs control in vivo at 20 mg/kg is 58.1% in the test with Golden Syrian hamsters (setting [1]) and 74% in the test on Golden Syrian hamsters (setting [2]).

Take `O=C(NCCCN1CCC(Cc2ccccc2)CC1)C1=Cc2cnc3cccc(n23)S1` [Example 29, N-[3-(4-benzylpiperidin-1-yl)propan-1-yl]-5-thia-1,8b-diazaacenaphthylene-4-carboxamide Dihydrochloride]: the response vs control in vivo at 20 mg/kg worked out at 73.9% in the test on Golden Syrian hamsters (setting [1]) and 68.1% in the test with Golden Syrian hamsters (setting [2]).

Regarding `O=C(NCCCN1CCN(Cc2ccccc2)CC1)C1=Cc2cnc3cccc(n23)S1` [Example 33, N-[3-(4-benzyl-1-piperazinyl)propan-1-yl]-5-thia-1,8b-diazaacenaphthylene-4-carboxamide Trihydrochloride], the results for the response vs control in vivo at 20 mg/kg in the test on Golden Syrian hamsters (setting [1]) and in the test with Golden Syrian hamsters (setting [2]) were 85.6% and 77.1%, respectively.

With `O=C(C1=Cc2cnc3cccc(n23)S1)N(Cc1ccccc1)CC1CCN(CCCc2ccccc2)CC1` [Example 52, N-benzyl-N-[1-(3-phenylpropan-1-yl)piperidin-4-ylmethyl]-5-thia-1,8b-diazaacenaphthylene Dihydrochloride], the activity at 10 µM with HepG2 cells came out at 183%.

As for `O=C(NCC1CCN(CCCOc2ccc(F)cc2F)CC1)C1=Cc2cnc3cccc(n23)S1` [Example 117, N-[1-(3-(2,4-difluorophenoxy)propan-1-yl)piperidin-4-ylmethyl]-5-thia-1,8b-diazaacenaphthylene-4-carboxamide Dihydrochloride], in the test on HepG2 cells, the activity at 10 µM was found to be 137%.

For `O=C(NCC1CCN(CCCc2cccc(F)c2)CC1)C1=Cc2cnc3cccc(n23)S1` [Example 74, N-[1-(3-(3-fluorophenyl)propan-1-yl)piperidin-4-ylmethyl]-5-thia-1,8b-diazaacenaphthylene-4-carboxamide Dihydrochloride], the response vs control in vivo at 20 mg/kg in the test with Golden Syrian hamsters (setting [1]) was determined as 67.9%; with Golden Syrian hamsters (setting [2]), 73.5%.

For `O=C(C=CC1=Cc2cnc3cccc(n23)S1)NC1CCN(CCCc2ccccc2)CC1` [Example 10, N-[1-(3-phenylpropan-1-yl)piperidin-4-yl]-3-(5-thia-1,8b-diazaacenaphthylen-4-yl)acrylamide dihydrochloride], in the test on HepG2 cells, the activity at 10 µM was found to be 169%. In addition, the values for the response vs control in vivo at 20 mg/kg in the test on Golden Syrian hamsters (setting [1]) and in the test on Golden Syrian hamsters (setting [2]) were 70.8% and 61%, respectively.

For the compound `O=C(C=CC1=Cc2cnc3cccc(n23)S1)NCC1CCN(CCCc2ccccc2)CC1` [Example 9, N-[1-(3-phenylpropan-1-yl)piperidin-4-ylmethyl]-3-(5-thia-1,8b-diazaacenaphthylen-4-yl)acrylamide dihydrochloride], the activity at 10 µM with HepG2 cells was 247%. Besides, the response vs control in vivo at 20 mg/kg was determined as 67% in the test on Golden Syrian hamsters (setting [1]) and 62.3% with Golden Syrian hamsters (setting [2]).

On to `O=C(NCCCN1CCC(c2ccccc2)CC1)C1=Cc2cnc3cccc(n23)S1` [Example 27, N-[3-(4-phenylpiperidin-1-yl)propan-1-yl]-5-thia-1,8b-diazaacenaphthylene-4-carboxamide Dihydrochloride], for which the activity at 10 µM in the test on HepG2 cells was 168%. Further, the figures for the response vs control in vivo at 20 mg/kg in the test on Golden Syrian hamsters (setting [1]) and with Golden Syrian hamsters (setting [2]) were 83.9% and 73.9%, respectively.

Regarding `O=C(NCCCCN1CCC(c2ccccc2)CC1)C1=Cc2cnc3cccc(n23)S1` [Example 26, N-[4-(4-phenylpiperidin-1-yl)butan-1-yl]-5-thia-1,8b-diazaacenaphthylene-4-carboxamide Dihydrochloride], the activity at 10 µM in the test with HepG2 cells came out at 189%. In addition, the values for the response vs control in vivo at 20 mg/kg in the test on Golden Syrian hamsters (setting [1]) and with Golden Syrian hamsters (setting [2]) were 82% and 66.4%, respectively.

For the compound `O=C(NCC1CCN(C[C@@H]2COc3ccccc3O2)CC1)C1=Cc2cnc3cccc(n23)S1` [Example 1, (R)-N-[1-(1,4-benzodioxan-2-ylmethyl)piperidin-4-ylmethyl]-5-thia-1,8b-diazaacenaphthylene-4-carboxamide dihydrochloride], the activity at 10 µM with HepG2 cells came to 203%. In addition, the response vs control in vivo at 20 mg/kg was determined as 78.4% with Golden Syrian hamsters (setting [1]) and 68.6% with Golden Syrian hamsters (setting [2]).

`O=C(NCC1CCN(CCCc2ccccc2F)CC1)C1=Cc2cnc3cccc(n23)S1` [Example 67, N-[1-(3-(2-fluorophenyl)propan-1-yl)piperidin-4-ylmethyl]-5-thia-1,8b-diazaacenaphthylene-4-carboxamide Dihydrochloride]: the activity at 10 µM with HepG2 cells was 162%. For the same compound, the response vs control in vivo at 20 mg/kg in the test on Golden Syrian hamsters (setting [1]) worked out at 67.9%; with Golden Syrian hamsters (setting [2]), 62%.

For `O=C(NCC1CCN(CCc2ccccc2F)CC1)C1=Cc2cnc3cccc(n23)S1` [Example 68, N-[1-(2-fluorophenethyl)piperidin-4-ylmethyl]-5-thia-1,8b-diazaacenaphthylene-4-carboxamide Dihydrochloride], the response vs control in vivo at 20 mg/kg with Golden Syrian hamsters (setting [1]) turned out to be 74.3%; in the test on Golden Syrian hamsters (setting [2]) it was 58.5%.

In the case of `O=C(NCC1CCN(CC2COc3ccccc3O2)CC1)C1=Cc2cnc3cccc(n23)S1` (centres unmarked) [Example 3, N-[1-(1,4-benzodioxan-2-ylmethyl)piperidin-4-ylmethyl]-5-thia-1,8b-diazaacenaphthylene-4-carboxamide dihydrochloride], the activity at 10 µM in the test with HepG2 cells was 194%. Further, the response vs control in vivo at 20 mg/kg came out at 91.3% in the test on Golden Syrian hamsters (setting [1]) and 69.5% with Golden Syrian hamsters (setting [2]).

Take `O=C(NCCN1CCN(CCCc2ccccc2)CC1)C1=Cc2cnc3cccc(n23)S1` [Example 58, N-[2-(4-(3-phenylpropan-1-yl)piperazin-1-yl)ethan-1-yl]-5-thia-1,8b-diazaacenaphthylene-4-carboxamide Trihydrochloride]: the response vs control in vivo at 20 mg/kg in the test on Golden Syrian hamsters (setting [1]) amounted to 71.2%; in the test with Golden Syrian hamsters (setting [2]) it was 74%.

As to `O=C(NCC1CCN(CCc2ccc(F)cc2)CC1)C1=Cc2cnc3cccc(n23)S1` [Example 70, N-[1-(4-fluorophenethyl)piperidin-4-ylmethyl]-5-thia-1,8b-diazaacenaphthylene-4-carboxamide Dihydrochloride], the response vs control in vivo at 20 mg/kg in the test with Golden Syrian hamsters (setting [1]) is 71.2%; in the test on Golden Syrian hamsters (setting [2]), 47.9%.

In the case of `O=C(NCC1CCN(CCCOc2ccc(F)cc2)CC1)C1=Cc2cnc3cccc(n23)S1` [Example 113, N-[1-(3-(4-fluorophenoxy)propan-1-yl)piperidin-4-ylmethyl]-5-thia-1,8b-diazaacenaphthylene-4-carboxamide Dihydrochloride], in the test on HepG2 cells, the activity at 10 µM was determined as 140%.

On to `O=C(NCC1CCN(CCCc2ccccc2Cl)CC1)C1=Cc2cnc3cccc(n23)S1` [Example 77, N-[1-(3-(2-chlorophenyl)propan-1-yl)piperidin-4-ylmethyl]-5-thia-1,8b-diazaacenaphthylene-4-carboxamide Dihydrochloride], for which the activity at 10 µM with HepG2 cells is 168%.

With `O=C(NCCCCN1CCc2ccccc2C1)C1=Cc2cnc3cccc(n23)S1` [Example 34, N-[4-(1,2,3,4-tetrahydroisoquinolin-2-yl)butan-1-yl]-5-thia-1,8b-diazaacenaphthylene-4-carboxamide Dihydrochloride], the response vs control in vivo at 20 mg/kg in the test with Golden Syrian hamsters (setting [1]) was 74.7%; in the test on Golden Syrian hamsters (setting [2]), 72.2%.

With `O=C(NC1CCN(CCCc2ccccc2Cl)CC1)C1=Cc2cnc3cccc(n23)S1` [Example 39, N-[1-[3-(2-chlorophenyl)propan-1-yl]piperidin-4-yl]-5-thia-1,8b-diazaacenaphthylene-4-carboxamide dihydrochloride], the response vs control in vivo at 20 mg/kg with Golden Syrian hamsters (setting [1]) is 62.6%; in the test on Golden Syrian hamsters (setting [2]), 62.7%.

`COc1ccccc1CCCN1CCC(CNC(=O)C2=Cc3cnc4cccc(n34)S2)CC1` [Example 80, N-[1-(3-(2-methoxyphenyl)propan-1-yl)piperidin-4-ylmethyl]-5-thia-1,8b-diazaacenaphthylene-4-carboxamide Dihydrochloride]: the activity at 10 µM in the test with HepG2 cells is 248%.

For the origin of these results see US6235731A, “Fused imidazopyridine derivatives as antihyperlipidemic agents” (Takeda Chemical Industries, Ltd., priority 1996, dated 2001).
